Data on eleven compounds can be found in US20210032253A1, “PYRAZOLO[1,5-A][1,3,5]TRIAZINE-2-AMINE DERIVATIVE, PREPARATION METHOD THEREFOR AND MEDICAL USE THEREOF” (JIANGSU HENGRUI MEDICINE CO., LTD., priority 2018, published 2021).

Common to all, as to format: cell-based
Assay [1] concerns the target T1, adenosine A2a receptor (A2aR) (Homo sapiens, UniProt P29274).
T1 construct: expressed in transfected cells; host or cells: CHO-K1
The assay is described as follows: Inhibition of adenosine A2a receptor cAMP signaling pathway in CHO-K1/A2aR cells (HTRF cAMP dynamic 2 kit). The settings on record: Table 1, 20 nM ethylcarbazole. From the text:
(§1) Test Example 1. Determination of the inhibitory activities of the compounds of the present disclosure on the adenosine A2a receptor (A2aR) cAMP signaling pathway, the adenosine A1 receptor (A1R) cAMP signaling pathway and the adenosine A3 receptor (A3R) cAMP signaling pathway.
(§2) The inhibitory activities of the compounds of the present disclosure on the adenosine A2a receptor (A2aR) cAMP signaling pathway, the adenosine A1 receptor cAMP signaling pathway and the adenosine A3 receptor cAMP signaling pathway were determined by the following methods. The experimental method is briefly described as follows:
CHO-K1/A2aR cells were cultured in DMEM/F12 medium containing 10% fetal bovine serum and 800 μg/mL Zeocin™. The cells were digested with the cell dissociation buffer during the experiment. The cells were resuspended in the HBSS buffer containing 20 mM HEPES and 0.1% bovine serum albumin and counted, and the cell density was adjusted to 10^6 cells/mL. In 384-well plates, each well was added with 5 μL of the cell suspension, and 2.5 µL of test compounds (4× concentration) formulated with the HBSS buffer containing 20 mM HEPES, 0.1% bovine serum albumin, 54 μM rolipram and 2.7 U/mL adenosine deaminase, and the plates were incubated at room temperature for 30 minutes. Each well was then added with 2.5 μL of ethylcarbazole (4× concentration) formulated with the balanced salt buffer containing 20 mM HEPES, 0.1% bovine serum albumin, 54 μM rolipram and 2.7 U/mL adenosine deaminase, and the plates were incubated at room temperature for 30 minutes. The final concentrations of the compounds were: 10000, 2000, 400, 80, 16, 3.2, 0.64, 0.128, 0.0256, 0.00512, and 0.001024 nM. The final concentration of ethylcarbazole was 20 nM. Intracellular cAMP concentration was determined with cAMP dynamic 2 kits. cAMP-d2 and Anti-cAMP—Eu-Cryptate were diluted respectively with the cAMP lysis buffer at a ratio of 1:4. Each well was added with 5 μL of the diluted cAMP-d2, followed by addition of 5 μL of the diluted Anti-cAMP—Eu-Cryptate, and the plates were incubated at room temperature in the dark for 1 hour. The HTRF signal values were read by the PHERAstar multi-function microplate reader.
In general terms: TR-FRET usually uses a lanthanide donor and a delayed reading to cut background.

In assay [2] the target is T2, adenosine A1 receptor (A1R) (Homo sapiens, UniProt P30542).
T2 construct: expressed in transfected cells; host or cells: CHO-K1
T2 sequence (P30542 1-326): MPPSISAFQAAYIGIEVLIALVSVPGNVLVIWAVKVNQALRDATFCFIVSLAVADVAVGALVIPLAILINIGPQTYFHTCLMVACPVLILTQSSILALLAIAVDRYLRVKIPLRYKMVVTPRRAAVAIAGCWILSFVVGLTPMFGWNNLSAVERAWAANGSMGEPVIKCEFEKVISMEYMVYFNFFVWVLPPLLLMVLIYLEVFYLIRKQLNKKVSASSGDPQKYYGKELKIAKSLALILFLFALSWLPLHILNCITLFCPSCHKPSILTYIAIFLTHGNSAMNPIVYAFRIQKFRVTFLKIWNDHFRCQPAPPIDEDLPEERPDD
The assay can be described thus: Inhibition of adenosine A1 receptor cAMP signaling pathway in CHO-K1/A1R cells (HTRF cAMP dynamic 2 kit). The settings on record: Table 2; for IC50: CHO-K1/A1R cells, cAMP, 10 μM forskolin, 10 nM CPA; for IC50 ratio (A1R/A2aR): selectivity A1R over A2aR.
Source text: as §1, §2
CHO-K1/A1R cells were cultured in DMEMIF12 medium containing 10% fetal bovine serum and 1 mg/mL G418. The cells were digested with the cell dissociation buffer during the experiment. The cells were then resuspended in the HBSS buffer containing 20 mM HEPES and 0.1% bovine serum albumin and counted, and the cell density was adjusted to 5×10^5 cells/mL. In 384-well plates, each well was added with 12.5 μL of the cell suspension, and 6.25 μL of the test compounds (4× concentration) formulated with the HBSS buffer containing 20 mM HEPES, 0.1% bovine serum albumin, 54 μM rolipram and 2.7 U/mL adenosine deaminase, and the plates were incubated at room temperature for 30 minutes. Each well was then added with 6.25 μL of forskolin and N6-cyclopentyladenosine (4× concentration) formulated with the HBSS buffer containing 20 mM HEPES, 0.1% bovine serum albumin, 54 μM rolipram and 2.7 U/mL adenosine deaminase, and the plates were incubated at room temperature for 30 minutes. The final concentrations of the compounds were: 100000, 10000, 1000, 100, 10, 1, 0.1 and 0 nM. The final concentration of forskolin was 10 μM. The final concentration of CPA was 10 nM. Intracellular cAMP concentration was determined with cAMP dynamic 2 kits. cAMP-d2 and Anti-cAMP—Eu-Cryptate were diluted respectively with the cAMP lysis buffer at a ratio of 1:4. Each well was added with 12.5 μL of the diluted cAMP-d2, followed by addition of 12.5 μL of the diluted Anti-cAMP—Eu-Cryptate, and the plates were incubated at room temperature in the dark for 1 hour. The HTRF signal values were read by the PHERAstar multi-function microplate reader.

Assay [3] concerns the target T3, adenosine A3 receptor (A3R) (Homo sapiens, UniProt P0DMS8).
T3 construct: expressed in transfected cells; host or cells: CHO-K1
T3 sequence (P0DMS8 1-318): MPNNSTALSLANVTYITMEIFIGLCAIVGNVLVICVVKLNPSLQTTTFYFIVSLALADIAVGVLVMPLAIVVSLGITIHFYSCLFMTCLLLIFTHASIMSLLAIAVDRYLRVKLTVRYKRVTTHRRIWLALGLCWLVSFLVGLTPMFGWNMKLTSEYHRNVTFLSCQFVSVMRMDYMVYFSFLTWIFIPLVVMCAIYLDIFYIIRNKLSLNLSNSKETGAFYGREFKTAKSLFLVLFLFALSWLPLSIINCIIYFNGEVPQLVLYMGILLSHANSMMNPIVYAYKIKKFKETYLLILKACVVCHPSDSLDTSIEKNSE
The assay is described as follows: Inhibition of adenosine A3 receptor cAMP signaling pathway in CHO-K1/A3R cells (HTRF cAMP dynamic 2 kit). The settings on record: Table 3; for IC50: CHO-K1/A3R cells, cAMP, 10 μM forskolin, 5 nM 2Cl-IB-MECA; for IC50 ratio (A3R/A2aR): selectivity A3R over A2aR.
Source text: as §1, §2
CHO-K1/A3R cells were cultured in DMEMIF12 medium containing 10% fetal bovine serum and 10 μg/mL puromycin. The cells were digested with the cell dissociation buffer during the experiment. The cells were resuspended in the HBSS buffer containing 20 mM HEPES and 0.1% bovine serum albumin and counted, and the cell density was adjusted to 5×10^5 cells/mL. In 384-well plates, each well was added with 12.5 μL of the cell suspension, and 6.25 μL of the test compounds (4× concentration) formulated with the HBSS buffer containing 20 mM HEPES, 0.1% bovine serum albumin, 54 μM rolipram and 2.7 U/mL adenosine deaminase, and the plates were incubated at room temperature for 30 minutes. Each well was then added with 6.25 μL of forskolin and 2Cl-IB-MECA (4× concentration) formulated with the HBSS buffer containing 20 mM HEPES, 0.1% bovine serum albumin, […] rolipram and 2.7 U/mL adenosine deaminase, and the plates were incubated at room temperature for 30 minutes. The final concentrations of the compounds were: 100000, 10000, 1000, 100, 10, 1, 0.1 and 0 nM. The final concentration of forskolin was 10 μM. The final concentration of 2Cl-IB-MECA was 5 nM. Intracellular cAMP concentration was determined with cAMP dynamic 2 kits. cAMP-d2 and Anti-cAMP—Eu-Cryptate were diluted respectively with the cAMP lysis buffer at a ratio of 1:4. Each well was added with 12.5 μL of the diluted cAMP-d2, followed by addition of 12.5 μL of the diluted Anti-cAMP—Eu-Cryptate, and the plates were incubated at room temperature in the dark for 1 hour. The HTRF signal values were read by the PHERAstar multi-function microplate reader. IC50 values for the inhibitory activities of the compounds were calculated by Graphpad Prism software, and are shown in Table 3.

T1 sequence (P29274 whole entry): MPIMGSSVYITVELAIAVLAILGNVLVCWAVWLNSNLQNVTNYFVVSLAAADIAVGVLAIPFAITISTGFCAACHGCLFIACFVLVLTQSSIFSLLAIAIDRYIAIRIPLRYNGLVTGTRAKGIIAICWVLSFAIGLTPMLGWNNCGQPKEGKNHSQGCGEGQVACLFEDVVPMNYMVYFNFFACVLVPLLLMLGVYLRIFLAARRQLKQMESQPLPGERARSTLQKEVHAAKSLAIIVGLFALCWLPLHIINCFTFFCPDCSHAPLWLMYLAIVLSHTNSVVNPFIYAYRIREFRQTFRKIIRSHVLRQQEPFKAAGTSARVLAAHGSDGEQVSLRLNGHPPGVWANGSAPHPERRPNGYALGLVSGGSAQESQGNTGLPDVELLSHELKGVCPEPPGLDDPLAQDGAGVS

Turning to `Cc1ccc(-c2nc(N)nc3c(Cc4cccc(CO[C@H]5CCOC5)c4)cnn23)o1` [Example 24, (S)-4-(5-Methylfuran-2-yl)-8-(3-(((tetrahydrofuran-3-yl)oxy)methyl)benzyl)pyrazolo[1,5-a][1,3,5]triazin-2-amine], the figures for the IC50 in assay [1], in assay [2] and in assay [3] were 1.2 nM, 2020 nM and 2040 nM, respectively. For the same compound, the “IC50 ratio (A1R/A2aR)” value in assay [2] is listed as >10^3. Also, the “IC50 ratio (A3R/A2aR)” value in assay [3] is reported as >10^3.
In assay [1], `Cc1ccc(-c2nc(N)nc3c(Oc4ccccn4)cnn23)o1` [Example 23, 4-(5-Methylfuran-2-yl)-8-(pyridin-2-yloxy)pyrazolo[1,5-a][1,3,5]triazin-2-amine] yielded an IC50 of 0.58 nM.
On to `Cc1ccc(-c2nc(N)nc3c(Cc4ccccc4F)cnn23)o1` [Example 4, 8-(2-Fluorobenzyl)-4-(5-methylfuran-2-yl)pyrazolo[1,5-a][1,3,5]triazin-2-amine], for which the IC50 in assay [1] was 0.14 nM; in assay [3], greater than 10000 nM. Also, the “IC50 ratio (A3R/A2aR)” value in assay [3] is >10^4.
With `Cc1ccc(-c2nc(N)nc3c(Cc4cccc(CN5CC6(COC6)C5)n4)cnn23)o1` [Example 7, 8-((6-((2-Oxa-6-azaspiro[3.3]heptan-6-yl)methyl)pyridin-2-yl)methyl)-4-(5-methylfuran-2-yl) pyrazolo[1,5-a][1,3,5]triazin-2-amine], the IC50 in assay [1] turned out to be 1.18 nM. For the same compound, in assay [2], 340 nM corresponded to half-maximal inhibition (IC50) and the “IC50 ratio (A1R/A2aR)” value is 288^. In assay [3], the IC50 is 7370 nM and the “IC50 ratio (A3R/A2aR)” value was >10^3.
`Cc1ccc(-c2nc(N)nc3c(Sc4cccc(CO[C@H]5CCOC5)n4)cnn23)o1` [Example 28, (S)-4-(5-Methylfuran-2-yl)-8-((6-(((tetrahydrofuran-3-yl)oxy)methyl)pyridin-2-yl)thio)pyrazolo[1,5-a][1,3,5]triazin-2-amine] displayed an IC50 in assay [1] of 2.13 nM. Further, in assay [2], it took 595 nM to reach half-maximal inhibition (IC50) and the “IC50 ratio (A1R/A2aR)” value was 279^. In assay [3], the IC50 is 1150 nM and the “IC50 ratio (A3R/A2aR)” value is reported as 540^.
`Cc1ccc(-c2nc(N)nc3c(Nc4ccccc4F)cnn23)o1` [Example 31, N^8-(2-Fluorophenyl)-4-(5-methylfuran-2-yl)pyrazolo[1,5-a][1,3,5]triazine-2,8-diamine] came in with an IC50 in assay [1] of 3.53 nM. This counts as single-digit nanomolar.
In assay [1], `Nc1nc(-c2ccco2)n2ncc(Cc3ccccc3)c2n1` [Example 33, 8-Benzyl-4-(furan-2-yl)pyrazolo[1,5-a][1,3,5]triazin-2-amine] showed a concentration for half-maximal inhibition (IC50) of 4.14 nM. Besides, in assay [2], the IC50 worked out at 565 nM and the “IC50 ratio (A1R/A2aR)” value is 136^.
In assay [1], `CCCc1cccc(Cc2cnn3c(-c4ccc(C)o4)nc(N)nc23)n1` [Example 20, 4-(5-Methylfuran-2-yl)-8-((6-propylpyridin-2-yl)methyl)pyrazolo[1,5-a][1,3,5]triazin-2-amine] had a concentration for half-maximal inhibition (IC50) of 0.09 nM. Also, in assay [3], inhibition was half-maximal at 280 nM (IC50) and the “IC50 ratio (A3R/A2aR)” value is reported as >10^3.
On to `Nc1nc(-c2ccco2)n2ncc(Cc3cccc(F)c3)c2n1` [Example 34, 8-(3-Fluorobenzyl)-4-(furan-2-yl)pyrazolo[1,5-a][1,3,5]triazin-2-amine], for which, in assay [1], the IC50 was 4.64 nM. This lies in the single-digit nanomolar range.
`Cc1ccc(-c2nc(N)nc3c(Cc4cccc(COCC5CC5)n4)cnn23)o1` [Example 17, 8-((6-((Cyclopropylmethoxy)methyl)pyridin-2-yl)methyl)-4-(5-methylfuran-2-yl)pyrazolo[1,5-a][1,3,5]triazin-2-amine] yielded an IC50 in assay [1] of 0.72 nM. Also, in assay [3], it took 1390 nM to reach half-maximal inhibition (IC50) and the “IC50 ratio (A3R/A2aR)” value is given as >10^3.
Turning to `Cc1ccc(-c2nc(N)nc3c(Cc4cccc(COS(N)(=O)=O)n4)cnn23)o1` [Example 11, (6-((2-Amino-4-(5-methylfuran-2-yl)pyrazolo[1,5-a][1,3,5]triazin-8-yl)methyl)pyridin-2-yl)methyl sulfamate], the IC50 in assay [1] was 1.86 nM. Besides, in assay [2], half-maximal inhibition (IC50) was put at 410 nM and the “IC50 ratio (A1R/A2aR)” value was 220^.

Usually IC50 stands for the point on the concentration scale where inhibition reaches its midpoint. Lower therefore signals inhibition by little substance.
